Columns and labels:
[1] = test system: human platelet-rich plasma; assay: Aggregometry in platelet-rich plasma; assay type: cell-based; conditions: PRP incubated with the polyol versus vehicle, submaximal agonist
Protocol: Aggregometry in platelet rich plasma (PRP) was performed as previously described^40 and outlined in supplemental methods.
Platelet rich plasma (PRP) was isolated as previously described.^5 Whole blood was drawn from healthy donors and anticoagulated with sodium citrate (0.109 M). PRP was prepared by centrifuging at 100×g for 10 min at 22° C. Platelet poor plasma (PPP) was obtained by additional centrifugation of the remaining blood samples at 11,000×g for 2 min. Next, platelets were counted with a hemocytometer and the platelet concentration adjusted to 2×10^8/mL using PPP. PRPs were then pre-incubated with xylitol (Catalogue #X3375-5G, Sigma, St. Louis, MO, USA) at indicated concentrations or vehicle (saline) for 30 min at 22° C. After exposure to xylitol or vehicle, PRPs were maintained in suspension with constant stirring (600 rpm) at 37° C. Subsequently, platelet aggregation was induced by adding the agonists ADP (up to 5 μM, Catalogue #384, Chronolog, Havertown, PA, US) or TRAP6 (TFLLR-NH2, up to 10 μM, Catalogue #464, Tocris, Bristol, UK). For all platelet aggregometry experiments, blood was always processed within approx. 30 minutes of collection, and isolated platelets were used within 120 minutes of isolation. When used, pairs of vehicle vs. xylitol incubated PRP were always incubated and analyzed together (beginning, middle, end of platelet prep use) and after 120 minutes post isolation, PRPs were not used anymore.
Platelet rich plasma (PRP) and platelet poor plasma (PPP) was prepared as previously described with sodium citrate (0.109 M) as anticoagulant^51. Platelets were counted and concentrations adjusted to 2×10^8/mL with PPP. PRPs were pre-incubated with erythritol (Catalogue #E7500, Sigma, St. Louis, MO, USA), glucose (Catalogue #G7021, Sigma, St. Louis, MO, USA) or 1,5-AHG (Catalogue #29874, Cayman Chemical, Ann Arbor, Michigan, USA) (at indicated concentrations) or vehicle (saline) for 30 min at 22° C. After pre-incubation PRPs were maintained in suspension with constant stirring (600 rpm) at 37° C. and platelet aggregation was initiated using ADP (up to 5 μM, Catalogue #384, Chronolog, Havertown, PA, US) or TRAP6 (TFLLR-NH2, up to […], Catalogue #464, Tocris, Bristol, UK).

[2] = test system: stable subjects undergoing elective diagnostic cardiac evaluations (Discovery Cohort); conditions: in vivo
Description: Our first study employed a Discovery Cohort, where we used untargeted metabolomics (semi-quantitative analyses) to analyze plasma samples from 1,157 stable subjects to identify circulating analytes whose levels were associated with future development of adverse cardiovascular events over an ensuing 3 year period. The Discovery Cohort included sequential stable patients (ages 18 years or above) undergoing elective diagnostic coronary angiography for risk evaluation at a quaternary referral center between 2001 and 2007 (GeneBank at the Cleveland Clinic; clinicaltrials.gov identifier: NCT00590200) with clinical and longitudinal outcomes.
In both, the Discovery and Validation Cohorts, Major Adverse Cardiovascular Events (MACE) were defined as death, nonfatal myocardial infarction, or nonfatal cerebrovascular accident (stroke) during follow-up. Adjudicated long term survival data were collected through medical records review and Social Security Death Index query. Cardiovascular disease (CVD) was indicated as presence of peripheral artery disease or coronary artery disease, indicated as any clinical history of myocardial infarction, coronary revascularization (including percutaneous coronary intervention, coronary artery bypass surgery), or angiographic evidence of significant stenosis (≥50%) in 1 or more major coronary arteries. Estimated glomerular filtration rate (eGFR) in both cohorts was calculated based on the recent Chronic Kidney Disease Epidemiology Collaboration 2021 CKD-EPI Creatinine equation.^37 Platelet-related hematology analyses were performed with an Advia 120 hematology analyzer (Siemens, New York, NY).^38 Use of anti-platelet agents (=1556) was defined as either aspirin or a P2Y12 agent or both. All observational studies in this example are reported in compliance with the STrengthening the Reporting of Observational studies in Epidemiology (STROBE)-Statement.^39 Information on gender of study participants of the Discovery and Validation Cohorts is reported in Table 1-3.
For untargeted mass spectrometry analyses, subject plasma samples were derivatized and run on GC-MS analyses as previously described.^19 Raw data files were processed using the metabolomics BinBase database.^45
Continuous variables are summarized as median (interquartile range [IQR]), and categorical variables are presented as %. Difference between groups (e.g. tertiles or quartiles) were examined using Kruskal Wallis test for continuous variables and chisq (χ^2) test for categorical variables. Kaplan-Meier analysis with Cox proportional-hazards regression was used for time-to-event analysis to determine hazard ratios (HR) and 95% confidence intervals (CI) for incident MACE. Adjustments included traditional cardiovascular risk factors (age, sex, diabetes mellitus, systolic blood pressure, low-density lipoprotein cholesterol levels, high-density lipoprotein cholesterol levels, triglyceride levels, smoking status) and high-sensitivity C-reactive protein (hsCRP). We confirmed that the proportionality hazards assumptions were met using the Schoenfeld residuals against the transformed time. Mann-Whitney U-test or Wilcoxon matched-pairs signed rank test were applied to continuous variables to examine differences between 2 groups. Kruskal-Wallis test with Dunn's post hoc test was used for pairwise multiple comparisons of ranked data. Two-way ANOVA with Šidák's multiple comparison post hoc test was used for multiple-group comparisons of aggregometry responses using different concentrations of agonists. For analysis of collagen-dependent platelet adhesion in whole blood, a two-way repeated measures ANOVA with Sidák's multiple comparison post hoc test was used. All reported measurements represent distinct samples. Data analyses were performed with R software (version 4.0.2) and GraphPad Prism software (version 9.1.2). A two-sided P<0.05 was considered statistically significant. […]

clinical = conditions: both, human, in vivo
Protocol: (§1) This single center trial was approved by the Cleveland Clinic Institutional Review Board (clinicaltrials.gov identifier NCT04731363). Following subject consent (nonsmokers without CVD, hypertension, or diabetes), blood was drawn after overnight fast and 30 min following consumption of water containing 30 g of […] glucose (n=10, 30.1±11 years of age, 40% male), or erythritol (n=10, 30.5±8 years of age, 50% male), a quantity commonly found in erythritol-sweetened foods and the daily intake of some subjects based on 2013-2014 National Health and Nutrition Examination Survey (NHANES) data and FDA filings.(4,5).
(§2) Following erythritol consumption, postprandial circulating erythritol levels (assessed using stable-isotope-dilution liquid-chromatography tandem mass spectrometry (LC/MS/MS)3) were >1000-fold increased compared to baseline levels (median[inter quartile range], 6480[5930-7300]μM versus 3.75[3.35-3.87]μM, P<0.0001). In contrast, circulating erythritol levels remained similar before versus after glucose consumption (3.0[2.6-4.0]μM versus 2.9[2.7-3.8]μM, P=0.87; glucose levels before versus after 86.5(81.8-93.0) versus 127.0(122.3-132.3), P=0.002). […] In contrast, glucose consumption had no effect on platelet aggregation.

[3] = test system: platelets of healthy volunteers; assay: Erythritol or glucose ingestion: platelet aggregation and granule release; assay type: in vivo, human
Protocol: as §1, §2

Row | Compound | stimulus-dependent platelet aggregation response to ADP and TRAP6 [1] | association with cardiovascular event risks / MACE [2] | glucose levels (clinical) | glucose levels (clinical; 30 min) | platelet aggregation responses to ADP and TRAP6 after ingestion ([3]; 30 min after 30 g vs baseline) | stimulus-dependent release of alpha granule marker CXCL4 ([3]; TRAP6 (7.5 μM), ADP (2.0 μM), after ingestion) | stimulus-dependent release of dense granule marker serotonin ([3]; TRAP6 and ADP, after ingestion)
1 | OC[C@H]1OC[C@H](O)[C@@H](O)[C@@H]1O [1,5-AHG, 1,5-anhydroglucitol, reference compound] | no effect | negatively associated |  |  |  |  | 
2 | O=C[C@H](O)[C@@H](O)[C@H](O)[C@H](O)CO [glucose, reference compound] | no effect |  | 86.5(81.8-93.0) | 127.0(122.3-132.3) | no effect | no differences | no differences

— patent US20260219274A1, “POLYOL SWEETNERS AND CARDIOVASCULAR AND THROMBOTIC EVENT RISK” (THE CLEVELAND CLINIC FOUNDATION, priority 2023, published 2026)
